Literature values in US10154967B2, “2,2′,6,6′-tetraisopropyl-4,4′-biphenol lipid microsphere preparations and preparation methods therefor” (XI'AN LIBANG PHARMACEUTICAL CO., LTD, priority 2012, dated 2018).

Legend:
[1] = compared with propofol
GABA receptors [2] = system: GABA receptors
NMDA receptors = settings: regulating the Ca2+ influx in Ca2+ channels
GABA receptors [3] = system: GABA receptors; remark: listed apart in the source
[4] = system: excitotoxic effect induced by kainate (kainic acid)

CC(C)c1cc(-c2cc(C(C)C)c(O)c(C(C)C)c2)cc(C(C)C)c1O [biphenol]
antioxidant strength [1]: significantly stronger antioxidant than propofol | affinity towards GABA receptors (GABA receptors [2]): strong affinity | action at NMDA receptors (NMDA receptors): antagonist | loss of consciousness (patients): does not cause the patients to lose consciousness | action at GABA receptors (GABA receptors [3]): agonist | lipid solubility: highly lipid soluble | solubility in water: difficult to dissolve in water | protection against the excitotoxic effect induced by kainate [4]: protection
